Structures are written as SMILES.

One experiment addresses T1, BCL6 (Homo sapiens, UniProt P41182).
T1 construct: Endogenous BCL6 was tagged with the 11-amino acid SmBiT through CRISPR/Cas9 gene editing; endogenous in cells; host or cells: Su-DHL-4 (CRISPR/Cas9 knock-in, single cell clone)
The experiment can be described thus: HiBiT cellular degradation assay in Su-DHL-4 cells. To be noted: concentration to reach 50% degradation of endogenous SmBiT-tagged BCL6, 24 hours of compound treatment. Format: cell-based. The procedure, abridged: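 SU-DHL-4 cells with endogenous BCL6 SmBiT-tagged by CRISPR/Cas9 treated with compound for 24 hours, then lysed and LgBiT added to reconstitute nanoluciferase; luminescence read after substrate addition. Degradation as percentage of DMSO control; DC50 is concentration giving 50% degradation.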
What is called DC50 is the concentration giving 50% degradation. Low readings indicate degradation at low concentration, high ones degradation only at high concentration. With `C[C@@H]1CN(c2nc(Nc3ccc4c(c3)cc(OC[C@@H]3CNCCO3)c(=O)n4C)c(Cl)cc2C#N)C[C@H](C)[C@@H]1F` [Compound 70, 5-Chloro-2-((3S,4S,5R)-4-fluoro-3,5-dimethylpiperidin-1-yl)-6-((1-methyl-3-((S)-morpholin-2-ylmethoxy)-2-oxo-1,2-dihydroquinolin-6-yl)amino)nicotinonitrile], the DC50 was more than 400 nM.

In turn, `CNC(=O)COc1cc2cc(Nc3nc(N4C[C@H](C)C[C@H](N)C4)c(C#N)cc3Cl)ccc2n(C)c1=O` [Compound 40, 2-((6-((6-((3S,5R)-3-Amino-5-methylpiperidin-1-yl)-3-chloro-5-cyanopyridin-2-yl)amino)-1-methyl-2-oxo-1,2-dihydroquinolin-3-yl)oxy)-N-methylacetamide] showed a DC50 of more than 400 nM.

In turn, `C[C@@H]1CN(c2nc(Nc3ccc4c(c3)n(CC[C@@H](C)O)c(=O)n4C)c(F)cc2C#N)C[C@H](C)[C@@H]1F` [Compound 55, 5-Fluoro-2-((3S,4S,5R)-4-fluoro-3,5-dimethylpiperidin-1-yl)-6-((3-((R)-3-hydroxybutyl)-1-methyl-2-oxo-2,3-dihydro-1H-benzo[d]imidazol-5-yl)amino)nicotinonitrile] returned a DC50 of 33 nM.

In turn, `C[C@H]1CN(c2nc(Nc3ccc4c(c3)n(CCC(C)(C)O)c(=O)n4CC3COC3)c(Cl)cc2C#N)C[C@@H](N)C1(F)F` [Compound 38, 2-((3R,5S)-3-Amino-4,4-difluoro-5-methylpiperidin-1-yl)-5-chloro-6-((3-(3-hydroxy-3-methylbutyl)-1-(oxetan-3-ylmethyl)-2-oxo-2,3-dihydro-1H-benzo[d]imidazol-5-yl)amino)nicotinonitrile] yielded a 50% degradation concentration (DC50) of more than 400 nM.

On to `CNC(=O)COc1cc2cc(Nc3nc(N4C[C@@H](C)C(F)(F)[C@@H](N)C4)c(C#N)cc3Cl)ccc2n(C)c1=O` [Compound 43, 2-((6-((6-((3S,5R)-3-Amino-4,4-difluoro-5-methylpiperidin-1-yl)-3-chloro-5-cyanopyridin-2-yl)amino)-1-methyl-2-oxo-1,2-dihydroquinolin-3-yl)oxy)-N-methylacetamide], for which the DC50 was 10 nM.

Turning to `CC(O)CCn1c(=O)n(C)c2ccc(Nc3nc(N4C[C@@H](CCO)[C@H](F)[C@@H](C)C4)c(C#N)cc3F)cc21` (stereo partly drawn) [Compound 56, 5-fluoro-2-[(3R,4R,5S)-4-fluoro-3-(2-hydroxyethyl)-5-methyl-1-piperidyl]-6-[[3-(3-hydroxybutyl)-1-methyl-2-oxo-benzimidazol-5-yl]amino]pyridine-3-carbonitrile], the DC50 was more than 400 nM.

`C[C@@H]1CN(c2nc(Nc3ccc4c(c3)n(CCC(C)(C)O)c(=O)n4C)c(F)cc2C#N)C[C@H](O)[C@@H]1F` [Compound 52, 5-Fluoro-2-((3S,4R,5R)-4-fluoro-3-hydroxy-5-methylpiperidin-1-yl)-6-((3-(3-hydroxy-3-methylbutyl)-1-methyl-2-oxo-2,3-dihydro-1H-benzo[d]imidazol-5-yl)amino)nicotinonitrile] registered a DC50 of 17 nM.

Turning to `CNC(=O)COc1cc2cc(Nc3ncc(C#N)c(N4C[C@@H](C)C(F)(F)[C@@H](C)C4)n3)ccc2n(C)c1=O` [Compound 1, 2-((6-((5-cyano-4-((3S,5R)-4,4-difluoro-3,5-dimethylpiperidin-1-yl)pyrimidin-2-yl)amino)-1-methyl-2-oxo-1,2-dihydroquinolin-3-yl)oxy)-N-methylacetamide], the DC50 is 6 nM.

`C[C@@H]1CN(c2nc(Nc3ccc4c(c3)n(CCC(C)(C)O)c(=O)n4C)c(F)cc2C#N)C[C@H](O)C1(F)F` [Compound 82, 2-((3S,5R)-4,4-difluoro-3-hydroxy-5-methylpiperidin-1-yl)-5-fluoro-6-((3-(3-hydroxy-3-methylbutyl)-1-methyl-2-oxo-2,3-dihydro-1H-benzo[d]imidazol-5-yl)amino)nicotinonitrile] yielded a DC50 of 33 nM.

For `CNC(=O)COc1cc2cc(Nc3nc(N4C[C@@H](C)C(F)(F)[C@@H](C)C4)c(C#N)cc3Cl)ccc2n(CCCO)c1=O` [Compound 18, 2-((6-((3-Chloro-5-cyano-6-((3R,5S)-4,4-difluoro-3,5-dimethylpiperidin-1-yl)pyridin-2-yl)amino)-1-(3-hydroxypropyl)-2-oxo-1,2-dihydroquinolin-3-yl)oxy)-N-methylacetamide], half-maximal degradation (DC50) was put at 5 nM.

`CNC(=O)COc1cc2cc(Nc3nc(N4C[C@@H](C)C[C@@H](N)C4)c(C#N)cc3Cl)ccc2n(C)c1=O` [Compound 39, 2-((6-((6-((3R,5S)-3-Amino-5-methylpiperidin-1-yl)-3-chloro-5-cyanopyridin-2-yl)amino)-1-methyl-2-oxo-1,2-dihydroquinolin-3-yl)oxy)-N-methylacetamide] had a DC50 of 41 nM.

With `C[C@H]1CN(c2nc(Nc3ccc4c(c3)n(CCC(C)(C)O)c(=O)n4C)c(F)cc2C#N)C[C@@H](O)C1(F)F` (single isomer, unassigned) [Compound 83], the DC50 was more than 400 nM.

For the compound `CNC(=O)COc1cc2cc(Nc3nc(N4C[C@@H](C)C(F)[C@@H](C)C4)c(C#N)cc3Cl)ccc2n(CCN2CCOCC2)c1=O` (stereo partly drawn) [Compound 68, 2-[[6-[[3-Chloro-5-cyano-6-[(3R,5S)-4-fluoro-3,5-dimethyl-1-piperidyl]-2-pyridyl]amino]-1-(2-morpholinoethyl)-2-oxo-3-quinolyl]oxy]-N-methyl-acetamide], the DC50 turned out to be 4 nM.

The test system of another experiment is Su-DHL-4 cells. The experiment can be described thus: CellTiter-Glo cell proliferation, BCL6 degrader with EZH2 inhibitors. As to conditions: EZH2 inhibitor at 480 nM added to BCL6 degrader (compound 1); Su-DHL-4 cells; 60% growth inhibition. Format: cell-based. On the procedure:
Enhancer of zeste homolog 2 (EZH2) is a member of the polycomb repressive complex 2 (PRC2) that methylates histone 3 lysine 27, a mark that is associated with gene repression.
To ensure HiBiT signal decrease was due to BCL6 degradation and not from dying cells, CellTiter-Glo® (CTG, Promega™) was performed on the same number of cells that were treated for 24 hours with BCL6 degraders. To study the anti-proliferative effects of BCL6 degraders and its synergistic effect with EZH2 inhibitors, Su-DHL-4 and other DLBCL cells were treated with the compounds at DC99, DC75, DC50, or 1 μM followed by 5 days of culture, at which point CTG values and/or Caspase3/7 activities were measured as percent DMSO treated.
On to `COc1cc(C)[nH]c(=O)c1CNC(=O)c1c(C)n([C@H](C)C2CCN(CC(F)(F)F)CC2)c2ccccc12` [Lira, Lirametostat, reference compound], for which the “reduction of BCL6 degrader dose requirement to achieve GI60” value is recorded as “around 4.3 fold”.

The experiment is the same for the next values; noted with them: compound 1 (50 nM to 2 nM) added 48 hours after Tazemetostat or Lirametostat (10 μM to 5 nM); read five days later; over most of the concentration range.
As to `CNC(=O)COc1cc2cc(Nc3ncc(C#N)c(N4C[C@@H](C)C(F)(F)[C@@H](C)C4)n3)ccc2n(C)c1=O` [Compound 1, 2-((6-((5-cyano-4-((3S,5R)-4,4-difluoro-3,5-dimethylpiperidin-1-yl)pyrimidin-2-yl)amino)-1-methyl-2-oxo-1,2-dihydroquinolin-3-yl)oxy)-N-methylacetamide], the “excess over Bliss (eob) score” value is more than 1.

The same experiment, now with this note: compound 1 with Tazemetostat or Lirametostat; Su-DHL-4 cells; over most of the concentration range.
As for `CNC(=O)COc1cc2cc(Nc3ncc(C#N)c(N4C[C@@H](C)C(F)(F)[C@@H](C)C4)n3)ccc2n(C)c1=O` [Compound 1, 2-((6-((5-cyano-4-((3S,5R)-4,4-difluoro-3,5-dimethylpiperidin-1-yl)pyrimidin-2-yl)amino)-1-methyl-2-oxo-1,2-dihydroquinolin-3-yl)oxy)-N-methylacetamide], the “average synergy score (SynergyFinder)” value was “over 10”.
